Reference: article PMC3712822 (Pharmacotherapy, 2011)
Read-outs that look alike come from different tables or passages of the source.

Experiments:
[1] = patients taking atorvastatin; cited from earlier work
human myocytes = settings: in vitro; cited from earlier work
CYP3A [2] = settings: cited from earlier work
[3] = for AUC(0-inf) / half-life / Tmax / Cmax: human, plasma, oral; for AUC(0-inf): AUC0–∞; for AUC(0-inf) / Tmax / Cmax: median (IQR); for half-life: harmonic mean ± SD; for Cmax: atorvastatin + clarithromycin 500 mg twice/day
[4] = Plasma clarithromycin partial AUC in the atorvastatin plus clarithromycin phase; format: in vivo; settings: human, oral, 500 mg, Partial AUC of clarithromycin (hrs 2–10), clarithromycin 500 mg twice/day, day 4, mean ± SD
CYP3A [5] = settings: classification by the United States Food and Drug Administration; cited from earlier work
[6] = 20 mg, CYP3A5 expressors (n=10), atorvastatin only
[7] = 20 mg, CYP3A5 nonexpressors (n=13), atorvastatin only
[8] = CYP3A5 expressors (n=10), atorvastatin + clarithromycin
[9] = CYP3A5 nonexpressors (n=13), atorvastatin + clarithromycin

## CC(C)c1c(C(=O)Nc2ccccc2)c(-c2ccccc2)c(-c2ccc(F)cc2)n1CC[C@@H](O)C[C@@H](O)CC(=O)O [atorvastatin acid, atorvastatin]
[1]
  Patients experiencing muscle-related adverse effects: 3–8%

## CC(C)c1c(C(=O)Nc2ccccc2)c(-c2ccccc2)c(-c2ccc(F)cc2)n1CC[C@@H]1C[C@@H](O)CC(=O)O1 [atorvastatin lactone]
Human myocytes
  Toxicity to human myocytes relative to the acid form: more toxic
CYP3A [2]
  Affinity for CYP3A relative to atorvastatin acid: higher affinity
[3]; atorvastatin-only phase, p=0.038
  AUC0–∞ higher in nonexpressors than in expressors: 36%
[3]; [6]
  AUC(0-inf): 34.9 ng·h/mL
  half-life: 654 ± 270 min
  Tmax: 2 h
[3]; [7]
  AUC(0-inf): 47.6 ng·h/mL
  half-life: 816 ± 312 min
  Tmax: 1 h
[3]; [8]
  AUC(0-inf): 110 ng·h/mL
  half-life: 1160 ± 324 min
  Tmax: 5 h
[3]; [9]
  AUC(0-inf): 127 ng·h/mL
  half-life: 1150 ± 312 min
[3]; CYP3A5 expressors (n=10)
  Cmax: 4.2 ng/mL
[3]; CYP3A5 nonexpressors (n=13)
  Cmax: 4.2 ng/mL

## CC[C@H]1OC(=O)[C@H](C)[C@@H](O[C@H]2C[C@@](C)(OC)[C@@H](O)[C@H](C)O2)[C@H](C)[C@@H](O[C@@H]2O[C@H](C)C[C@H](N(C)C)[C@H]2O)[C@](C)(OC)C[C@@H](C)C(=O)[C@H](C)[C@@H](O)[C@]1(C)O [clarithromycin]
[4]; CYP3A5 expressors
  AUC: 17700 µg·h/mL
[4]; CYP3A5 nonexpressors
  AUC: 21900 µg·h/mL
CYP3A [5]
  CYP3A inhibitor classification: strong CYP3A inhibitor
